Each structure is given as a SMILES string.

This passage reports inhibition results from patent US10435399B2, “HDAC6 inhibitory heterocyclic compound” (TAKEDA PHARMACEUTICAL COMPANY LIMITED, priority 2017, dated 2019).

This test deals with T1, HDAC6 enzyme (Homo sapiens, UniProt Q9UBN7).
T1 construct: transducing full length HDAC6 gene into Sf-9 insect cells; GST; purchased SignalChem; host or cells: Sf-9 insect cells
T1 sequence (Q9UBN7 1-1215): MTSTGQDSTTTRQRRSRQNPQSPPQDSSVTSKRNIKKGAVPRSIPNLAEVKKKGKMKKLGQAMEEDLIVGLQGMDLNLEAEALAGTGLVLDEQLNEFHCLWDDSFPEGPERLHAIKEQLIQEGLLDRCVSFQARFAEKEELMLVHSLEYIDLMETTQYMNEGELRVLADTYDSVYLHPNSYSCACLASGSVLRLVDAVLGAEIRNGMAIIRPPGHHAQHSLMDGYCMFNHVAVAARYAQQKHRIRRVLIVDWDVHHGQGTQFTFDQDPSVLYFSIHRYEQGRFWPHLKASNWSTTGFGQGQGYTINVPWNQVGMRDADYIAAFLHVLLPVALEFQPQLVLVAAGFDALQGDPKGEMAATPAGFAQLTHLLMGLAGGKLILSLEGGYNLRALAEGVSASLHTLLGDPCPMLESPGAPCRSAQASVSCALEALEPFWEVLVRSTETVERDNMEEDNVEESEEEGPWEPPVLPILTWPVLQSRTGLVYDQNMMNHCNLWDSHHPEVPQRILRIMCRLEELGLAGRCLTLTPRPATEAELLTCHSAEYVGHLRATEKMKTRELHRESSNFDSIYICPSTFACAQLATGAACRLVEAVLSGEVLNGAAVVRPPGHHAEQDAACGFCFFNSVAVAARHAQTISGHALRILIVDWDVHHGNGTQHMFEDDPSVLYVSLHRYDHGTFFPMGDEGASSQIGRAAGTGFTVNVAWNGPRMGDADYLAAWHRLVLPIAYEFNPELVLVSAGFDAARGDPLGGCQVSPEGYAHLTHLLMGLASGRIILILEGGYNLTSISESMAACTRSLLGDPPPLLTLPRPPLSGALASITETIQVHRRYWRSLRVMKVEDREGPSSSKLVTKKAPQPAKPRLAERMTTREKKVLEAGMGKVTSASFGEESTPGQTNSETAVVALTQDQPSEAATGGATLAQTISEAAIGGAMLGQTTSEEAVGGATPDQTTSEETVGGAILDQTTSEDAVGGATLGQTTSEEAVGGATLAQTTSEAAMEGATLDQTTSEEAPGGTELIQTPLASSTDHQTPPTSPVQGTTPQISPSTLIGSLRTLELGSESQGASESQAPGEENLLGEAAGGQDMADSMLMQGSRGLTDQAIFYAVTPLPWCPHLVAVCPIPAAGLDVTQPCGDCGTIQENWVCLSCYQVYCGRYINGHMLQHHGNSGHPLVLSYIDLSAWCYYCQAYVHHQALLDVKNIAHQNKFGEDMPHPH
In words: HDAC6 enzyme inhibitory activity (HDAC-Glo I/II Assay kit). The test is classed as biochemical. The note with it: 10 μM; wells without enzyme = 100% inhibition; read-out: HDAC6 inhibitory rate (%) (10 μM). Put shortly: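 Sf-9-derived GST-purified full-length HDAC6 + cpd, 60 min RT, 24 mM Tris pH 7.5/0.6 mM glutathione/0.01% Tween-20; add HDAC-Glo substrate-developer, 20 min RT; luminescence. No-enzyme = 100% inhibition.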

Turning to `O=C1c2cc(-c3nnc(C(F)F)o3)cnc2CN1Cc1cccc(Br)c1` [Example 428, 6-(3-bromo-benzyl)-3-(5-(difluoro-methyl)-1,3,4-oxadiazol-2-yl)-6,7-dihydro-5H-pyrrolo [3,4-b] pyridin-5-one], the inhibition at 10 µM came to 99%.
As to `O=C1c2cc(-c3nnc(C(F)F)o3)cc(F)c2CN1C[C@H]1CC(F)(F)CN1C(=O)c1ccccc1` [Example 429, 2-(((2R)-1-benzoyl-4,4-difluoro-pyrrolidin-2-yl)methyl)-6-(5-(difluoro-methyl)-1,3,4-oxadiazol-2-yl)-4-fluoroiso-indolin-1-one], the inhibition at 10 µM is 97%.
To `O=C1c2cc(-c3nnc(C(F)F)o3)cc(F)c2CN1C[C@H]1CC(F)(F)CN1S(=O)(=O)c1ccccc1` [Example 430, 6-(5-(difluoro-methyl)-1,3,4-oxadiazol-2-yl)-2-(((2R)-4,4-difluoro-1-(phenylsulfonyl)pyrrolidin-2-yl)methyl)-4-fluoroiso-indolin-1-one] belongs 101%; to `Cn1nc(C(F)(F)F)cc1-c1c(F)cccc1N1Cc2ccc(-c3nnc(C(F)F)o3)cc2C1=O` [Example 431, 6-(5-(difluoro-methyl)-1,3,4-oxadiazol-2-yl)-2-(3-fluoro-2-(1-methyl-3-(trifluoro-methyl)-1H-pyrazol-5-yl)phenyl)iso-indolin-1-one], 100%.
As for `O=C1c2cc(-c3nnc(C(F)F)o3)cnc2CN1Cc1cccc(OC(F)(F)F)c1` [Example 432, 3-(5-(difluoro-methyl)-1,3,4-oxadiazol-2-yl)-6-(3-(trifluoro-methoxy)benzyl)-6,7-dihydro-5H-pyrrolo[3,4-b] pyridin-5-one], the figure is 94%; as for `O=C1c2cc(-c3nnc(C(F)F)o3)ccc2CN1C1(Cc2ccccc2)CCOCC1` [Example 433, 2-(4-benzyl-tetrahydro-2H-pyran-4-yl)-6-(5-(difluoro-methyl)-1,3,4-oxadiazol-2-yl) isoindolin-1-one], 101%.
To `Cn1cc(-c2cn(C)nc2N2Cc3ccc(-c4nnc(C(F)F)o4)cc3C2=O)cn1` [Example 434, 6-(5-(difluoro-methyl)-1,3,4-oxadiazol-2-yl)-2-(1,1′-dimethyl-1H,1′H-4,4′-bipyrazol-3-yl) isoindolin-1-one] belongs 98%.
Consider `O=C1c2cc(-c3nnc(C(F)F)o3)ccc2CN1c1ccnn1-c1ccccc1` [Example 435, 6-(5-(difluoro-methyl)-1,3,4-oxadiazol-2-yl)-2-(1-phenyl-1H-pyrazol-5-yl)isoindolin-1-one], for which the inhibition at 10 µM came out at 99%.
To `Cn1cc(-c2c(F)cccc2N2Cc3ccc(-c4nnc(C(F)F)o4)cc3C2=O)cn1` [Example 436, 6-(5-(difluoro-methyl)-1,3,4-oxadiazol-2-yl)-2-(3-fluoro-2-(1-methyl-1H-pyrazol-4-yl)phenyl)iso-indolin-1-one] belongs 98%; to `O=C1c2cc(-c3nnc(C(F)F)o3)cnc2CN1Cc1ccccc1OC(F)(F)F` [Example 437, 3-(5-(difluoro-methyl)-1,3,4-oxadiazol-2-yl)-6-(2-(trifluoro-methoxy)benzyl)-6,7-dihydro-5H-pyrrolo [3,4-b]pyridin-5-one], 101%; to `Cn1cccc1CN1Cc2ncc(-c3nnc(C(F)F)o3)cc2C1=O` [Example 438, 3-(5-(difluoro-methyl)-1,3,4-oxadiazol-2-yl)-6-((1-methyl-1H-pyrrol-2-yl)methyl)-6,7-dihydro-5H-pyrrolo [3,4-b]pyridin-5-one], 97%.
As for `O=C1CCCN1c1cc(F)ccc1N1Cc2ccc(-c3nnc(C(F)F)o3)cc2C1=O` [Example 439, 6-(5-(difluoro-methyl)-1,3,4-oxadiazol-2-yl)-2-(4-fluoro-2-(2-oxo-pyrrolidin-1-yl)phenyl) isoindolin-1-one], the inhibition at 10 µM was 99%.
As for `O=C1c2cc(-c3nnc(C(F)F)o3)cnc2CN1Cc1nccs1` [Example 440, 3-(5-(difluoro-methyl)-1,3,4-oxadiazol-2-yl)-6-(1,3-thiazol-2-ylmethyl)-6,7-dihydro-5H-pyrrolo [3,4-b]pyridin-5-one], the figure is 97%; as for `O=C1c2cc(-c3nnc(C(F)F)o3)cnc2CN1Cc1ccccc1Br` [Example 441, 6-(2-bromo-benzyl)-3-(5-(difluoro-methyl)-1,3,4-oxadiazol-2-yl)-6,7-dihydro-5H-pyrrolo [3,4-b]pyridin-5-one], 99%; as for `Cn1ccc(N2Cc3ccc(-c4nnc(C(F)F)o4)cc3C2=O)n1` [Example 442, 6-(5-(difluoro-methyl)-1,3,4-oxadiazol-2-yl)-2-(1-methyl-1H-pyrazol-3-yl)isoindolin-1-one], 94%.
As for `N#Cc1ccc(N2Cc3ccc(-c4nnc(C(F)F)o4)cc3C2=O)c(-c2ccccc2)c1` [Example 443, 6-(6-(5-(difluoro-methyl)-1,3,4-oxadiazol-2-yl)-1-oxo-1,3-dihydro-2H-isoindol-2-yl) biphenyl-3-carbonitrile], the figure is 100%.
Take `N#Cc1ccc(N2Cc3ccc(-c4nnc(C(F)F)o4)cc3C2=O)c(-c2cnn(C(F)F)c2)c1` [Example 444, 4-(6-(5-(difluoro-methyl)-1,3,4-oxadiazol-2-yl)-1-oxo-1,3-dihydro-2H-isoindol-2-yl)-3-(1-(difluoro-methyl)-1H-pyrazol-4-yl) benzonitrile]: the inhibition at 10 µM came to 100%.
As for `N#Cc1ccc(N2Cc3ccc(-c4nnc(C(F)F)o4)cc3C2=O)c(-c2cccc(F)c2)c1` [Example 445, 6-(6-(5-(difluoro-methyl)-1,3,4-oxadiazol-2-yl)-1-oxo-1,3-dihydro-2H-isoindol-2-yl)-3′-fluoro-biphenyl-3-carbonitrile], the figure is 100%; as for `Cn1cc(C2CCOCC2)c(N2Cc3ccc(-c4nnc(C(F)F)o4)cc3C2=O)n1` [Example 446, 6-(5-(difluoro-methyl)-1,3,4-oxadiazol-2-yl)-2-(1-methyl-4-(tetrahydro-2H-pyran-4-yl)-1H-pyrazol-3-yl) isoindolin-1-one], 100%.
To `COc1cccc(-c2cn(C)nc2N2Cc3ccc(-c4nnc(C(F)F)o4)cc3C2=O)c1` [Example 447, 6-(5-(difluoro-methyl)-1,3,4-oxadiazol-2-yl)-2-(4-(3-methoxy-phenyl)-1-methyl-1H-pyrazol-3-yl) isoindolin-1-one] belongs 100%; to `Cn1cc(C2=CCOCC2)c(N2Cc3ccc(-c4nnc(C(F)F)o4)cc3C2=O)n1` [Example 448, 6-(5-(difluoro-methyl)-1,3,4-oxadiazol-2-yl)-2-(4-(3,6-dihydro-2H-pyran-4-yl)-1-methyl-1H-pyrazol-3-yl) isoindolin-1-one], 100%; to `CC(=O)N[C@@H]1CCCC[C@H]1N1Cc2ncc(-c3nnc(C(F)F)o3)cc2C1=O` [Example 449, N-((1R,2R)-2-(3-(5-(difluoro-methyl)-1,3,4-oxadiazol-2-yl)-5-oxo-5,7-dihydro-6H-pyrrolo[3,4-b]pyridin-6-yl)cyclohexyl) acetamide], 100%.
To `O=C1c2cc(-c3nnc(C(F)F)o3)ccc2CN1c1ccc(F)cc1-n1cc(C(F)(F)F)cn1` [Example 450, 6-(5-(difluoro-methyl)-1,3,4-oxadiazol-2-yl)-2-(4-fluoro-2-(4-(trifluoro-methyl)-1H-pyrazol-1-yl)phenyl) isoindolin-1-one] belongs 100%; to `O=C1c2cc(-c3nnc(C(F)F)o3)ccc2CN1c1ccc(F)cc1-n1cc(Cl)cn1` [Example 451, 2-(2-(4-chloro-1H-pyrazol-1-yl)-4-fluoro-phenyl)-6-(5-(difluoro-methyl)-1,3,4-oxadiazol-2-yl) isoindolin-1-one], 98%; to `O=C1c2cc(-c3nnc(C(F)F)o3)ccc2CN1c1ccc(F)cc1-n1cc(F)cn1` [Example 452, 6-(5-(difluoromethyl)-1,3,4-oxadiazol-2-yl)-2-(4-fluoro-2-(4-fluoro-1H-pyrazol-1-yl)phenyl)isoindolin-1-one], 99%.
